Where two headings read alike, the source gives them in different places.
Tested on: IL-13 release from KU812 cells
Experiment: IL-13 release assay in KU812 cells (PMA + ionomycin, IL-13 ELISA)
Type: cell-based, human

Structure (SMILES)	inhibition at 1 µM (Homo sapiens, 1 μM, read-out: Percentages of IL-13 inhibition)	inhibition at 10 µM (Homo sapiens, 10 μM (Fistein), read-out: Percentages of IL-13 inhibition)	inhibition at 100 µM (Homo sapiens, 100 μM, read-out: Percentages of IL-13 inhibition)	IL-13 release / inhibition, in words (first screening (Examples 1 and 3))	inhibition at 10 µM (Homo sapiens, positive control 10 μM, read-out: Percentages of IL-13 inhibition)
O=c1c(O)c(-c2ccc(O)c(O)c2)oc2cc(O)ccc12 [Fistein, Fisetin]	26.5%	17.3%	35.7%	the inhibition percentages were relatively low	
C[C@@H]1C[C@H]2[C@@H]3CCC4=CC(=O)C=C[C@]4(C)[C@@]3(F)[C@@H](O)C[C@]2(C)[C@@]1(O)C(=O)CO [Dexamethasone]					52%

Source: patent US10967031B2, “Synergistic herbal compositions with prebiotic properties for treatment of skin infections, allergies and inflammation” (priority 2010, dated 2021)
